Results from ChEMBL document CHEMBL1129142, “Synthesis of azido derivatives of semotiadil, a novel 1,4-benzothiazine calcium antagonist, for photoaffinity probes of calcium channels” (Bioorg Med Chem Lett, 1996).

Experiments:
[1] = [Ca2+] antagonistic activity was measured with isolated depolarized guinea pig taenia cecum.(test 2); type: functional, tissue-based, Cavia porcellus, Caecum
[2] = [Ca2+] antagonistic activity was measured with isolated depolarized guinea pig taenia cecum.(test 1); type: functional, tissue-based, Cavia porcellus, Caecum
[3] = Displacement of [3H]semotiadil from L-type calcium channel of rabbit skeletal muscle; type: tissue-based, Oryctolagus cuniculus, Muscle tissue
[4] = [Ca2+] antagonistic activity was measured with isolated depolarized guinea pig taenia cecum.; type: functional, tissue-based, Cavia porcellus, Caecum

IC50 [1]	IC50 [2]	Ki [3]	IC50 [4]	SMILES
–	–	2670 nM	654 nM	COc1ccc(OCCCN(C)CCOc2cccc(N=[N+]=[N-])c2)c([C@H]2Sc3ccccc3N(C)C2=O)c1
54.5 nM	42.7 nM	121 nM	–	COc1ccc(OCCCN(C)CCOc2ccc3c(c2)OCO3)c([C@H]2Sc3ccccc3N(C)C2=O)c1 [SEMOTIADIL]
–	–	–	537 nM	COc1ccc(OCCCN(C)CCOc2ccc3c(c2)OCO3)c([C@H]2Sc3ccccc3N(CCCCN=[N+]=[N-])C2=O)c1

The remaining lines, values behind:

SMILES	IC50 [1]	IC50 [2]	Ki [3]	IC50 [4]
COc1ccc(OCCCN(C)CCOc2cccc(N=[N+]=[N-])c2)c(C2Sc3ccccc3N(C)C2=O)c1 (centres undefined)	1380 nM	427 nM	–	–
COc1ccc(OCCCN(C)CCOc2ccc3c(c2)OCO3)c([C@H]2Sc3ccccc3N(CCN=[N+]=[N-])C2=O)c1	–	–	–	275 nM
